In brackets after ≈: the same amount, converted by molar mass. Entries after “also recorded” stand apart in the source; their conditions may differ.
Columns and labels:
[1] = Pharmacokinetics: concentration of prodrug (or propofol) in rat plasma after intravenous infusion, LC/MS/MS; conditions: for AUC(0-inf) / AUC(0-t) / Cmax / MRT inf / Tmax / Vd / clearance / half-life: male, Sprague-Dawley, rat, plasma, iv, 0.168 mmol/Kg; for Mean concentration of prodrug and propofol in rat plasma after intravenous infusion administration: analyte = administered compound
Method: (§1) Blood samples were to be taken pre-dose, during dose and post dose at designated intervals, with the blood quickly processed and stored at −70° C. until analysis.
(§2) Formulations were prepared on the morning of the dosing day and each was passed through a 0.22 μm filter prior to being administered to animals. A standard dose of 0.168 mmol/Kg per analog was administered to each of the rats. […] Analog stability in the formulations was verified by preparing each formulation and harvesting 200 μL aliquots at 0, 1, 2 and 8 hr while standing at room temperature. After harvesting, each sample was immediately frozen in dry ice until analysis; concentrations of test compounds in the samples were examined by HPLC-UV.
(§3) The animals were surgically prepared with indwelling cannula, double cannulation in carotid artery and jugular vein for i.v. infusion. The anesthetic pentobarbital was used during the surgery, and the animals were allowed to recover 3-5 days after surgery before the formulation was dosed. The dose formulation was administered intravenously via the jugular vein cannula. The 16.8 μmol/mL formulation was administered i.v. at a rate of 1 mL/Kg/min for 10 min.
(§4) Approximately 0.20 mL blood was collected at each designated time point from carotid artery via a catheter. A total of 12 plasma samples were taken from each animal: 1 pre-dose; 2 during the dose (5 into the 10 min infusion and one just prior termination of the 10 min infusion) and 9 post-infusion at 2, 5, 15, 30 min and 1, 2, 3, 4, and 6 hr post-dose. All blood samples were transferred into plastic microcentrifuge tubes containing 5 μL of K2-EDTA (0.5M) as anti-coagulant and placed on ice until processed for plasma. Blood samples were processed for plasma by centrifugation at approximately 5° C. Plasma samples were then stored in 1.5 mL tubes, quick frozen over dry ice and kept at −70±10° C. until LC/MSMS analysis.
(§5) For each, a minimum of 6 standard point curve runs in duplicates, and minimum of 5 standards were back calculated to within ±20% of their nominal concentrations. The LLOQ of each test article in plasma was established and 6 QC samples were included in assay runs of samples to ensure assay performance.
(§6) Plasma concentration versus time data was analyzed by non-compartmental approaches using the WinNonlin software program (version 5.2, Pharsight, Mountain View, Calif.) and the pharmacokinetic parameters T½, CL, Vss, AUC(0-t), AUC(0-inf), MRT, and graphs of plasma concentration versus time calculated for each.

[2] = test system: rats; assay: Clinical observations of rats during administration of propofol analogs in the pharmacokinetics study
Method: as §1, §2, §3

[3] = Solubility determination of propofol analogs in D2O by 1H NMR with DSS internal standard; conditions: for solubility: D2O, water, thermodynamic from solid
Method: Thus the soapy-like solutions obtained were diluted until opalescent and diluted further until the opalescence visually disappeared.

[4] = Pharmacokinetics: concentration of propofol in rat plasma after intravenous infusion of each pro-drug, LC/MS/MS; conditions: for Mean Concentration of Propofol in Rat Plasma After Intravenous Administration: analyte propofol from the administered compound; for pro-drug efficiency, release of propofol: releasing the propofol in a matter of minutes after infusion, rat
Method: as §1, §2, §3, §4, §5, §6

[5] = time post-10 min i.v. infusion, 0.168 mmol/Kg

Structure (SMILES)	AUC(0-inf) [1]	AUC(0-t) [1]	Cmax [1]	MRT inf [1]	Tmax [1]	Vd [1]	clearance [1]	half-life [1]	solubility [3]	Mean Concentration of Propofol in Rat Plasma After Intravenous Administration ([4]; Time 0 h (pre-dose))	Mean concentration of prodrug and propofol in rat plasma after intravenous infusion administration ([1]; Time 0 h (pre-dose))	Mean concentration of prodrug and propofol in rat plasma after intravenous infusion administration ([1]; Time 0.25 h)	Mean concentration of prodrug and propofol in rat plasma after intravenous infusion administration ([1]; Time 0.417 h)	Mean concentration of prodrug and propofol in rat plasma after intravenous infusion administration ([1]; Time 0.667 h)	Mean concentration of prodrug and propofol in rat plasma after intravenous infusion administration ([1]; Time 2.166 h)	Mean concentration of prodrug and propofol in rat plasma after intravenous infusion administration ([1]; Time 3.166 h)	Mean concentration of prodrug and propofol in rat plasma after intravenous infusion administration ([1]; Time 4.166 h)	Mean concentration of prodrug and propofol in rat plasma after intravenous infusion administration ([1]; Time 6.166 h)	Clinical Observation: recovered at [2, 5]	pro-drug efficiency, release of propofol [4]	also measured
CC(C)c1cccc(C(C)C)c1O [Propofol, 2,6-diisopropylphenol, reference compound]	12.6 µM·h	10.6 µM·h	31.9 µM	209 min	10.8 min	61.2 L/kg	265 mL/min/kg	383 min	1.1 mM (≈ 196 µg/mL)	BQL	–	–	–	–	–	–	–	–	–	–	Clinical Observation: Rats soporous at [2, 5]: Rats soporous at about 4 min and; Clinical Observation: recovered at ([2]; time post-10 min infusion, 5% cremophor vehicle): recovered at about 1.5 hr
CC(C)c1cccc(C(C)C)c1OC(=O)OCCO[C@@H]1O[C@H](CO)[C@@H](O)[C@H](O)[C@H]1O [Compound 9]	–	–	–	–	–	–	–	–	9.4 mM (≈ 4030 µg/mL)	BQL	BQL	BQL	BQL	BQL	BQL	BQL	BQL	BQL	recovered at about 30 min	very efficient pro-drugs	Mean concentration of prodrug and propofol in rat plasma after intravenous infusion administration ([1]; Time 0.083 h (during 10 min infusion)): BQL; Mean concentration of prodrug and propofol in rat plasma after intravenous infusion administration ([1]; Time 0.167 h (end of 10 min infusion)): BQL; Mean concentration of prodrug and propofol in rat plasma after intravenous infusion administration ([1]; Time 0.2 h): BQL; Mean concentration of prodrug and propofol in rat plasma after intravenous infusion administration ([1]; Time 1.166 h): BQL
CC(C)c1cccc(C(C)C)c1OC(=O)OCCO[C@@H]1O[C@H](CO)C(O[C@H]2O[C@H](CO)[C@@H](O)[C@H](O)[C@H]2O)[C@H](O)[C@H]1O (stereo partly drawn) [Compound 24]	0.791 µM·h	0.786 µM·h	8.1 µM	12.4 min	8.4 min	120 L/kg	5800 mL/min/kg	53.2 min	> 20 mM	BQL	BQL	–	–	–	BQL	–	BQL	BQL	recovered at about 30 min	very efficient pro-drugs	–
CC(C)c1cccc(C(C)C)c1OC(=O)NCCO[C@@H]1O[C@H](CO)[C@@H](O)[C@H](O)[C@H]1O [Compound 17]	71.8 µM·h	61.6 µM·h	313 µM	16.6 min	10.2 min	0.657 L/kg	39.1 mL/min/kg	26.2 min	1.6 mM (≈ 684 µg/mL)	BQL	BQL	–	–	–	–	–	–	–	–	–	Clinical Observation (adverse findings, individual rats) ([2]; times post-10 min infusion, vehicle 10% Tween80, cloudy): died at 15 min; also recorded: died at 1.5 h from hematuria; water solubility (in words) ([3]; reason for cosolvent in the dose formulation): poor water solubility; Mean Concentration of Propofol in Rat Plasma After Intravenous Administration ([4]; Time 2.166 h): BQL; Mean Concentration of Propofol in Rat Plasma After Intravenous Administration ([4]; Time 3.166 h): BQL; Mean Concentration of Propofol in Rat Plasma After Intravenous Administration ([4]; Time 4.166 h): BQL; Mean Concentration of Propofol in Rat Plasma After Intravenous Administration ([4]; Time 6.166 h): BQL
CC(C)c1cccc(C(C)C)c1OC(=O)OCCCO[C@H]1O[C@H](CO)[C@@H](O)[C@H](O)[C@H]1O [Compound 33]	–	0.00304 µM·h	0.0231 µM	–	10.2 min	–	–	–	5.7 mM (≈ 2520 µg/mL)	BQL	BQL	BQL	BQL	BQL	BQL	BQL	BQL	BQL	recovered at about 30 min	very efficient pro-drugs	Mean concentration of prodrug and propofol in rat plasma after intravenous infusion administration ([1]; Time 1.166 h): BQL; Clinical Observation: Rats soporous at [2, 5]: Rats soporous at about 3 min and; Mean Concentration of Propofol in Rat Plasma After Intravenous Administration ([4]; Time 4.166 h): BQL; Mean Concentration of Propofol in Rat Plasma After Intravenous Administration ([4]; Time 6.166 h): BQL
CC(C)c1cccc(C(C)C)c1OC(=O)OCCCO[C@@H]1O[C@H](CO)C(O[C@H]2O[C@H](CO)[C@@H](O)[C@H](O)[C@H]2O)[C@H](O)[C@H]1O (stereo partly drawn) [Compound 25, 1-((2′,6′-diisopropylphenoxy)carbonyloxy)propyl-β-D-maltose]	8.57 µM·h	8.57 µM·h	68.4 µM	4.62 min	10.2 min	1.51 L/kg	337 mL/min/kg	15.2 min	> 20 mM	BQL	BQL	–	–	–	–	BQL	BQL	BQL	recovered at about 35 min	very efficient pro-drugs	–
CC(C)c1cccc(C(C)C)c1OC(=O)OCCCO[C@@H]1O[C@H](CO)[C@@H](O)[C@H](O)[C@H]1O [Compound 12]	0.00122 µM·h	0.000773 µM·h	0.00678 µM	6 min	10.2 min	–	–	3.6 min	5.5 mM (≈ 2430 µg/mL)	BQL	BQL	BQL	BQL	BQL	BQL	BQL	BQL	BQL	recovered at about 30 min	very efficient pro-drugs	Mean concentration of prodrug and propofol in rat plasma after intravenous infusion administration ([1]; Time 0.2 h): BQL; Mean concentration of prodrug and propofol in rat plasma after intravenous infusion administration ([1]; Time 1.166 h): BQL; Mean Concentration of Propofol in Rat Plasma After Intravenous Administration ([4]; Time 4.166 h): BQL; Mean Concentration of Propofol in Rat Plasma After Intravenous Administration ([4]; Time 6.166 h): BQL
CC(C)c1cccc(C(C)C)c1OC(=O)OCCO[C@H]1O[C@H](CO)[C@@H](O)[C@H](O)[C@H]1O [Compound 32]	–	0.000657 µM·h	0.00538 µM	–	8.4 min	–	–	–	13.3 mM (≈ 5700 µg/mL)	BQL	BQL	BQL	BQL	BQL	BQL	BQL	BQL	BQL	recovered at about 26 min	very efficient pro-drugs	Mean concentration of prodrug and propofol in rat plasma after intravenous infusion administration ([1]; Time 1.166 h): BQL; Clinical Observation: Rats soporous at [2, 5]: Rats soporous at about 3 min and
